PMC9587021, “Construction of a bioluminescence-based assay for bitter taste receptors (TAS2Rs)” (Scientific Reports, 2022)

Tests used:
[1] = target: T1, TAS2R30 (Homo sapiens, UniProt P59541); test: cell-based; parameters: bioluminescence intracellular calcium release assay, mt-clytin II with coelenterazine, Gα16-gust44 co-expressed; settings: 293AD cells
T1 sequence (P59541 1-319): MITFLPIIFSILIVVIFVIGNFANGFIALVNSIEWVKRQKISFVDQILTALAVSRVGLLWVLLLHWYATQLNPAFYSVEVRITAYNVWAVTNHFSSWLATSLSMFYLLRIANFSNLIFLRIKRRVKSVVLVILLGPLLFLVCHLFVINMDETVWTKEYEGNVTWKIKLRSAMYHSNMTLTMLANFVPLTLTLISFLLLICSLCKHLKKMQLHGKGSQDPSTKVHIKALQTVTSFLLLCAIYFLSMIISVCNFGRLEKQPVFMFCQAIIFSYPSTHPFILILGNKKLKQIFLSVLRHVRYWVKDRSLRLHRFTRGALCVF
Description: (§1) The bioluminescence-based assay was used to characterize the functional properties of various human TAS2Rs. For each TAS2R, one or more of its cognate agonists were tested against either the AD-293 or 293AD cell line, or both. Both cell lines were used because of their stronger adherent properties, which facilitate media changes on the day of the FLIPR assay. However, because both cell lines are generated differently, some disparities in gene expression capacities due to a myriad of factors could be reasonably expected. Consequently, some TAS2Rs may be well expressed in one cell line but not the other, and the ability of each cell line to express a particular TAS2R needs to be empirically evaluated. […] However, deviations between our experimental and published potency values for some ligands (i.e. TAS2R4: stevioside; TAS2R7: Mg^2+, Mn^2+, Zn^2+) were observed, which could be attributed to the use of a different assay format, readout and processing parameters, use of different cell lines with resultant potential differences in TAS2R expression levels, and quality and methodological differences in ligand preparations. Because potency values could be obtained that were consistent with the literature, or close to the reported minimal effective stimulatory concentration upon further testing of other TAS2R4/7 agonists, the deviation in EC50 values could be largely attributed to qualitative differences in the ligands (Supplementary Fig. S3). Calcium responses induced by the tested cognate agonists reflected specific TAS2R stimulation. […] Poor localization of TAS2Rs to the cell surface in heterologous systems was associated with diminished receptor signaling output and functionality. One of the more commonly used strategies to enhance the density of TAS2Rs at the cell surface involves fusing an N-terminal signal sequence of either the SST3, or Rho receptor to the TAS2R[24]. We adopted this approach, specifically co-expressing SST3-TAS2R with Gα16-gust44 chimera and mt-clytin II, to develop and validate a bioluminescence-based TAS2R intracellular calcium release assay. A strength of the bioluminescence-based TAS2R assay is its capacity to generate greater assay spans than that of fluorescence-based assays, which could be largely attributed to the utilization of mt-clytin II as the calcium reporter. Calcium-binding photoproteins in general are useful reporters for studying calcium-mediated signaling processes. […] Its fast calcium binding and dissociation kinetics render it a suitable indicator to report on swift, transient changes in calcium ion concentrations and study rapid receptor-ligand interactions. Mitochondrial targeting of clytin II was crucial to generating higher luminescence intensity than that of cytosol-localized clytin II, as inositol 1,4,5-triphosphate (IP3)-induced calcium release from the ER subsequent to ligand activation is thought to result in the formation of ER-proximal, calcium-rich microdomains that enabled the closely apposed mitochondria to sense a higher initial rise in calcium concentration than would be experienced by the bulk cytosol.

[2] = target: T2, TAS2R16 (Homo sapiens, UniProt Q9NYV7); test: cell-based; parameters: bioluminescence intracellular calcium release assay, mt-clytin II with coelenterazine, Gα16-gust44 co-expressed
T2 sequence (Q9NYV7 1-291): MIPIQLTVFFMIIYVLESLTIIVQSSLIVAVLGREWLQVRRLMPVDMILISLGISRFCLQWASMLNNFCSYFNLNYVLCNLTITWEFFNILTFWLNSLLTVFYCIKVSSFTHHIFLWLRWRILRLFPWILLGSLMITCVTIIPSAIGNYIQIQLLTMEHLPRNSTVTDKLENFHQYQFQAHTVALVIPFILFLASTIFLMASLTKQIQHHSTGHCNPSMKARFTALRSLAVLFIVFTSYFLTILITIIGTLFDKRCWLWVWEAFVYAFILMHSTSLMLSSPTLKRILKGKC
Description: as §1

[3] = target: T3, TAS2R10 (Homo sapiens, UniProt Q9NYW0); test: cell-based; parameters: bioluminescence intracellular calcium release assay, mt-clytin II with coelenterazine, Gα16-gust44 co-expressed
T3 sequence (Q9NYW0 1-307): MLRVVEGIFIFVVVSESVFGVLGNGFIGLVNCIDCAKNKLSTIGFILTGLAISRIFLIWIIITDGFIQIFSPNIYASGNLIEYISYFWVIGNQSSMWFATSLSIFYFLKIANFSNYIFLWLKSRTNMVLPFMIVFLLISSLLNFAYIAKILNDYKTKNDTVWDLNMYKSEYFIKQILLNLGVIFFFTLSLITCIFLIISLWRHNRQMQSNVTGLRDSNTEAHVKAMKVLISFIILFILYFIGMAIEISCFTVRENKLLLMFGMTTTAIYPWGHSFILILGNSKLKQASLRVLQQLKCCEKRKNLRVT
Description: as §1

[4] = target: T4, TAS2R8 (Homo sapiens, UniProt Q9NYW2); test: cell-based; parameters: bioluminescence intracellular calcium release assay, mt-clytin II with coelenterazine, Gα16-gust44 co-expressed
T4 sequence (Q9NYW2 1-309): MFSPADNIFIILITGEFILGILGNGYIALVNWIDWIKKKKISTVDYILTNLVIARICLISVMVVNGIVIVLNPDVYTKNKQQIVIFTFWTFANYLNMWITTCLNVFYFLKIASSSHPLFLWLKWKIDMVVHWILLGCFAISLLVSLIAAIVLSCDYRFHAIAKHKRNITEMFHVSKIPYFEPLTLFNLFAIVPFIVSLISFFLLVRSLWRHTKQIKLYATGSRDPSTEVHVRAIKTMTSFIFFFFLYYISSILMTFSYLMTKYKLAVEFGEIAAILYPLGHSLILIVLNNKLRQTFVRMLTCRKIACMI
Description: as §1

[5] = target: T5, TAS2R3 (Homo sapiens, UniProt Q9NYW6); test: cell-based; parameters: bioluminescence intracellular calcium release assay, mt-clytin II with coelenterazine, Gα16-gust44 co-expressed; settings: 293AD cells
T5 sequence (Q9NYW6 1-316): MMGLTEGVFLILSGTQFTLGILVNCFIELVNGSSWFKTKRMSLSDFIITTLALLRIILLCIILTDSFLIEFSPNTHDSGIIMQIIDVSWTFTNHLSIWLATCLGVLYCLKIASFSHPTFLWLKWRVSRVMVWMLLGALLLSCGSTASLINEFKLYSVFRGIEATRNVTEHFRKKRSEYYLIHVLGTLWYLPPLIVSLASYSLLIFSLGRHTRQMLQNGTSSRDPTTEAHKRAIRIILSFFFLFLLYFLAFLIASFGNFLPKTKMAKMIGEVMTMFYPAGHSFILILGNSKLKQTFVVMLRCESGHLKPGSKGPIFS
Description: as §1

[6] = target: T6, TAS2R20 (Homo sapiens, UniProt P59543); test: cell-based; parameters: bioluminescence intracellular calcium release assay, mt-clytin II with coelenterazine, Gα16-gust44 co-expressed
T6 sequence (P59543 1-309): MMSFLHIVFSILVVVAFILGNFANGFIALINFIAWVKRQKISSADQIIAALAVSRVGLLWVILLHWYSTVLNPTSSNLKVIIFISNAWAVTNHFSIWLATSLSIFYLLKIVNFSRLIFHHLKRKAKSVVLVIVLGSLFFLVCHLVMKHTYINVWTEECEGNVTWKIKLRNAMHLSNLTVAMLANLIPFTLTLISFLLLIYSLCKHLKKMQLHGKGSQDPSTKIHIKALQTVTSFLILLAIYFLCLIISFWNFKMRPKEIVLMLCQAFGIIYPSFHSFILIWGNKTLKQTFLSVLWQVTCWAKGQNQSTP
Description: as §1

[7] = target: T7, TAS2R13 (Homo sapiens, UniProt Q9NYV9); test: cell-based; parameters: bioluminescence intracellular calcium release assay, mt-clytin II with coelenterazine, Gα16-gust44 co-expressed; settings: 293AD cells
T7 sequence (Q9NYV9 1-303): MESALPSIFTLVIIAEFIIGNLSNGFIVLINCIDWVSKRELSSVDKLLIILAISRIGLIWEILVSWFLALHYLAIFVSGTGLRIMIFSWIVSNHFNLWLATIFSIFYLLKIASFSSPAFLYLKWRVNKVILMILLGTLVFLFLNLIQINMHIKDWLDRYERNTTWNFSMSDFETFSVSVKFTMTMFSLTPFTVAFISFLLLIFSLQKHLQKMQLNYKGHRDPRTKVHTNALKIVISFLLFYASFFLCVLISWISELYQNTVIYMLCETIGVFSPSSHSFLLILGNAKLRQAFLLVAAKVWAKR
Description: as §1

[8] = target: T8, TAS2R14 (Homo sapiens, UniProt Q9NYV8); test: cell-based; parameters: species or system 293AD; bioluminescence intracellular calcium release assay, mt-clytin II with coelenterazine, Gα16-gust44 co-expressed
T8 sequence (Q9NYV8 1-317): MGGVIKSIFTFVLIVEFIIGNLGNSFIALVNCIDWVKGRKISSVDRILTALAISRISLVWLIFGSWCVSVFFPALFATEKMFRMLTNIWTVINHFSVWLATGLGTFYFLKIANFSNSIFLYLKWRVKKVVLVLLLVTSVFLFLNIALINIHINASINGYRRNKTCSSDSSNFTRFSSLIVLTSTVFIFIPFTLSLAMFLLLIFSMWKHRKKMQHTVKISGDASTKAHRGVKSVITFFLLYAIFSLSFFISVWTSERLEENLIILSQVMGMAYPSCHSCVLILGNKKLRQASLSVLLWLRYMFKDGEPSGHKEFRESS
Description: The bioluminescence-based assay was used to characterize the functional properties of various human TAS2Rs. For each TAS2R, one or more of its cognate agonists were tested against either the AD-293 or 293AD cell line, or both. […] We adopted this approach, specifically co-expressing SST3-TAS2R with Gα16-gust44 chimera and mt-clytin II, to develop and validate a bioluminescence-based TAS2R intracellular calcium release assay.

[9] = target: T9, TAS2R9 (Homo sapiens, UniProt Q9NYW1); test: cell-based; parameters: bioluminescence intracellular calcium release assay, mt-clytin II with coelenterazine, Gα16-gust44 co-expressed; settings: 293AD cells
T9 sequence (Q9NYW1 1-312): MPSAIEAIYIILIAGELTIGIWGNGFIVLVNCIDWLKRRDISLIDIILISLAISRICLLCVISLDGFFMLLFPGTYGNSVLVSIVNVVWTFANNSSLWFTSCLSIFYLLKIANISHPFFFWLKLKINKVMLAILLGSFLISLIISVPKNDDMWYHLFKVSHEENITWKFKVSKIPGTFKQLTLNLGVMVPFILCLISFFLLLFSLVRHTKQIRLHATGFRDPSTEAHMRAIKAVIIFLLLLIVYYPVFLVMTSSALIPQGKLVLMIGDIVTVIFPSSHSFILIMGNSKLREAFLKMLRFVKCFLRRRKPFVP
Description: as §1

[10] = target: T10, TAS2R43 (Homo sapiens, UniProt P59537); test: bioluminescence (mt-clytin II) intracellular calcium release; assay type: cell-based
T10 construct: AD-293 cells; co-expressed Galpha16-gust44 chimera and mt-clytin II reporter (type 2 multigene vector)
T10 sequence (P59537 2-309): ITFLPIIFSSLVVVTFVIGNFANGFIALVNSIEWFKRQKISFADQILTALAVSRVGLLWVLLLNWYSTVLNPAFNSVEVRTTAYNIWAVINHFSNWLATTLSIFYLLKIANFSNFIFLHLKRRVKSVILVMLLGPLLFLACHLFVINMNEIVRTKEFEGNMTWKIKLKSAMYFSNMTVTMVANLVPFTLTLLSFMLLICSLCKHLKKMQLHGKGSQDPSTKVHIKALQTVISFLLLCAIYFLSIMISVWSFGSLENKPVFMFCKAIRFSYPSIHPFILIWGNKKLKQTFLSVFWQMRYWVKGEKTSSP
Source text: bioluminescence (mt-clytin II) intracellular calcium release on TAS2R43 | TAS2R43, both aristolochic acid and aloin could be considered full agonists | indicating the partial agonist activity of caffeine towards TAS2R43

## C=C[C@H]1[C@H](O[C@@H]2O[C@H](CO)[C@@H](O)[C@H](O)[C@H]2OC(=O)c2c(O)cc(O)cc2-c2cccc(O)c2)OC=C2C(=O)OCC[C@H]21 [Amarogentin]
[1]
  EC50: 3 ± 1 µM

## OC[C@H]1O[C@@H](Oc2ccc(O)cc2)[C@H](O)[C@@H](O)[C@@H]1O [Arbutin]
[2]; AD-293 cells
  EC50: 5000 ± 1200 µM

## COc1cc2c(cc1OC)[C@@]13CCN4CC5=CCO[C@H]6CC(=O)N2[C@H]1[C@H]6[C@H]5C[C@H]43 [Brucine]
[3]; 293AD cells
  EC50: 21 ± 6.5 µM
[3]; AD-293 cells
  EC50: 42 ± 3 µM

## O=C(N[C@H](CO)[C@H](O)c1ccc([N+](=O)[O-])cc1)C(Cl)Cl [Chloramphenicol]
[4]; 293AD cells
  EC50: 18 ± 2.7 µM
[4]; AD-293 cells
  EC50: 70 ± 12 µM

## CCN(CC)CCCC(C)Nc1ccnc2cc(Cl)ccc12 (stereo not shown) [Chloroquine diphosphate]
[5]
  EC50: 45 ± 14 µM

## O=C(O)c1cc(=O)c2c(OCC(O)COc3cccc4oc(C(=O)O)cc(=O)c34)cccc2o1 [Cromolyn]
[6]; 293AD cells
  EC50: 35 ± 7 µM
[6]; AD-293 cells
  EC50: 73 ± 26 µM

## CC[N+](CC)(CC(=O)Nc1c(C)cccc1C)Cc1ccccc1 [Denatonium benzoate]
[4]; AD-293 cells
  EC50: 1000 ± 100 µM

## O=Cc1ccccc1O[C@@H]1O[C@H](CO)[C@@H](O)[C@H](O)[C@H]1O [Helicin]
[2]; AD-293 cells
  EC50: 3000 ± 200 µM

## CC[N+](C)(CC)CCOC(=O)C(O)(c1ccccc1)C1CCCCC1 (stereo not shown) [Oxyphenonium]
[7]
  EC50: 161 ± 16 µM

## C=C(C)[C@@H]1[C@H]2OC(=O)[C@@H]1[C@]1(O)C[C@H]3O[C@]34C(=O)O[C@H]2[C@]14C [Picrotoxinin]
[8]
  EC50: 54 ± 8.4 µM

## CN1CCN(CC(=O)N2c3ccccc3C(=O)Nc3cccnc32)CC1 [Pirenzepine]
[9]
  EC50: 4000 ± 400 µM

## OCc1ccccc1O[C@@H]1O[C@H](CO)[C@@H](O)[C@H](O)[C@H]1O [Salicin]
[2]; 293AD cells
  EC50: 400 ± 200 µM
[2]; AD-293 cells
  EC50: 2000 ± 600 µM

## O=C1c2c(O)cccc2C([C@@H]2O[C@H](CO)[C@@H](O)[C@H](O)[C@H]2O)c2cc(CO)cc(O)c21 (stereo partly shown) [aloin]
[10]
  EC50: 5 ± 3 µM

## COc1cccc2c1cc([N+](=O)[O-])c1c(C(=O)O)cc3c(c12)OCO3 [aristolochic acid]
[10]
  EC50: 0.026 ± 0.003 µM

## Cn1c(=O)c2c(ncn2C)n(C)c1=O [caffeine]
[10]
  EC50: 390 ± 120 µM
